Source: patent publication US12492186B2, “Bicyclic heterocyclic compounds useful as IRAK4 inhibitors” (BRISTOL-MYERS SQUIBB COMPANY, priority 2019, dated 2025)

How the values were obtained:
IRAK4 = IRAK4 (Homo sapiens (Human), UniProt Q9NWZ3); test: IRAK4 Inhibition Assay; assay type: biochemical; conditions: ATP 500 μM; IRAK4 0.6 nM; 60 min room temperature; Caliper LABCHIP 3000
Human whole blood = test: IRAK4 Whole Blood Assay (IL-6 levels after stimulation with TLR2 agonist lipoteichoic acid); assay type: cell-based; conditions: 10 μg/mL lipoteichoic acid, 5 hours
Experimental: Human whole blood containing the anti-coagulant ACD-A was plated in 384-well plate (25 μL/well) and incubated with compounds for 60 minutes at 37° C. in a 5% CO2 incubator. The blood was stimulated with a TLR2 agonist, 10 μg/mL final concentration of lipoteichoic acid (Invivogen, San Diego, CA) in 25 μL RPMI (Gibco) for 5 hours in a 5% CO2 incubator. At the end of the incubation, plates were centrifuged at 2300 rpm for 5 minutes. Supernatants were harvested and analyzed for IL-6 levels by Flow Cytometry beads assay (BD Biosciences, San Jose, CA).

Sequence of IRAK4 (Q9NWZ3 whole entry, species assumed): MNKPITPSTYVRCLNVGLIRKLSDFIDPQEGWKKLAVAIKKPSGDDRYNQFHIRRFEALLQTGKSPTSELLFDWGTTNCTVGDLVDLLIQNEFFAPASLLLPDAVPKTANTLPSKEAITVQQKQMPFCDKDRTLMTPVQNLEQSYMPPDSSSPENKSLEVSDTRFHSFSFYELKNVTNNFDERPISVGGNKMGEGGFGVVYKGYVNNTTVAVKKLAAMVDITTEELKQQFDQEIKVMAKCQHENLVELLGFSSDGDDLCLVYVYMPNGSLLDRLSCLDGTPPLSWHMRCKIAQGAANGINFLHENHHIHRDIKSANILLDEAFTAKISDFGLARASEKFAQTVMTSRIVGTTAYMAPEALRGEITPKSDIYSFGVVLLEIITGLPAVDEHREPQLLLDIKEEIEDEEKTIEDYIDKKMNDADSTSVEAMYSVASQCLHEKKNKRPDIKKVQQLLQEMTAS

IC50 (IRAK4) [µM]	EC50 (Human whole blood) [µM]	Structure (SMILES)
0.0097	1.19	CC(C)Nc1c(C(=O)NCCN2CCOCC2)cnc2ccc(-c3cn[nH]c3)cc12 [Example 44, 4-(isopropylamino)-N-(2-morpholinoethyl)-6-(1H-pyrazol-4-yl)quinoline-3-carboxamide]
0.0091	0.35	CC(C)Nc1c(C(=O)NCCC(F)F)cnc2ccc(-c3cn[nH]c3)cc12 [Example 45, N-(3,3-difluoropropyl)-4-(isopropylamino)-6-(1H-pyrazol-4-yl)quinoline-3-carboxamide]
0.0066	2.1	CC(=O)N[C@H]1C[C@H](NC(=O)c2cnc3ccc(-c4cn[nH]c4)cc3c2NC(C)C)C1 [Example 46, N-((1r,3r)-3-acetamidocyclobutyl)-4-(isopropylamino)-6-(1H-pyrazol-4-yl)quinoline-3-carboxamide]
0.0091	0.868	COC(=O)N[C@H]1C[C@H](NC(=O)c2cnc3ccc(-c4cn[nH]c4)cc3c2NC(C)C)C1 [Example 47, methyl ((1r,3r)-3-(4-(isopropylamino)-6-(1H-pyrazol-4-yl)quinoline-3-carboxamido)cyclobutyl)carbamate]
0.0045	0.699	CC(C)Nc1c(C(=O)NCCC2CC2)cnc2ccc(-c3cn[nH]c3)cc12 [Example 51, N-(2-cyclopropylethyl)-4-(isopropylamino)-6-(1H-pyrazol-4-yl)quinoline-3-carboxamide]
0.016	4.74	Cc1cc2ncc(C(=O)NCCC(C)(C)O)c(NC(C)C)c2cc1-c1cn[nH]c1 [Example 59, N-(3-hydroxy-3-methylbutyl)-4-(isopropylamino)-7-methyl-6-(1H-pyrazol-4-yl)quinoline-3-carboxamide]
0.0123	1.69	CC(C)Nc1c(C(=O)NC2CCN(Cc3ccc(F)cc3)CC2)cnc2ccc(-c3cn[nH]c3)cc12 [Example 76, N-(1-(4-fluorobenzyl)piperidin-4-yl)-4-(isopropylamino)-6-(1H-pyrazol-4-yl)quinoline-3-carboxamide]
0.0099	0.788	CC(=O)N1CCC(NC(=O)c2cnc3ccc(-c4cn[nH]c4)cc3c2NC(C)C)CC1 [Example 77, N-(1-acetylpiperidin-4-yl)-4-(isopropylamino)-6-(1H-pyrazol-4-yl)quinoline-3-carboxamide]
0.0168	1.36	CC(C)Nc1c(C(=O)NC2CCN(Cc3ccncc3)CC2)cnc2ccc(-c3cn[nH]c3)cc12 [Example 78, 4-(isopropylamino)-6-(1H-pyrazol-4-yl)-N-(1-(pyridin-4-ylmethyl)piperidin-4-yl)quinoline-3-carboxamide]
0.0057	0.618	CC(C)Nc1c(C(=O)NC2CCN(S(C)(=O)=O)CC2)cnc2ccc(-c3cn[nH]c3)cc12 [Example 79, 4-(isopropylamino)-N-(1-(methylsulfonyl)piperidin-4-yl)-6-(1H-pyrazol-4-yl) quinoline-3-carboxamide]
0.013	1.32	CCOC(=O)N1CCC(NC(=O)c2cnc3ccc(-c4cn[nH]c4)cc3c2NC(C)C)CC1 [Example 80, ethyl 4-(4-(isopropylamino)-6-(1H-pyrazol-4-yl)quinoline-3-carboxamido)piperidine-1-carboxylate]
0.0117	1.4	CC(C)Nc1c(C(=O)NC2CCN(C(=O)C3CC3)CC2)cnc2ccc(-c3cn[nH]c3)cc12 [Example 81, N-(1-(cyclopropanecarbonyl)piperidin-4-yl)-4-(isopropylamino)-6-(1H-pyrazol-4-yl)quinoline-3-carboxamide]
0.009	0.455	CC(C)Nc1c(C(=O)NC2CCN(C(=O)N3CCOCC3)CC2)cnc2ccc(-c3cn[nH]c3)cc12 [Example 82, 4-(isopropylamino)-N-(1-(morpholine-4-carbonyl)piperidin-4-yl)-6-(1H-pyrazol-4-yl) quinoline-3-carboxamide]
0.0171	1.17	CC(C)Nc1c(C(=O)NC2CCN(S(=O)(=O)c3cccnc3)CC2)cnc2ccc(-c3cn[nH]c3)cc12 [Example 84, 4-(isopropylamino)-6-(1H-pyrazol-4-yl)-N-(1-(pyridin-3-ylsulfonyl)piperidin-4-yl)quinoline-3-carboxamide]
0.0068	0.458	CC(C)Nc1c(C(=O)NCC2CCS(=O)(=O)C2)cnc2ccc(-c3cn[nH]c3)cc12 (stereo not shown) [Example 87, N-((1,1-dioxidotetrahydrothiophen-3-yl)methyl)-4-(isopropylamino)-6-(1H-pyrazol-4-yl)quinoline-3-carboxamide]
0.0185	1.52	CC(C)Nc1c(C(=O)NCCS(C)(=O)=O)cnc2ccc(-c3cn[nH]c3)cc12 [Example 88, 4-(isopropylamino)-N-(2-(methylsulfonyl)ethyl)-6-(1H-pyrazol-4-yl)quinoline-3-carboxamide]

IC50 (IRAK4) [µM]	EC50 (Human whole blood) [µM]	Structure (SMILES)
0.0095	2.24	CC(C)Nc1c(C(=O)NCCN2CCS(=O)(=O)CC2)cnc2ccc(-c3cn[nH]c3)cc12 [Example 94, N-(2-(1,1-dioxidothiomorpholino)ethyl)-4-(isopropylamino)-6-(1H-pyrazol-4-yl) quinoline-3-carboxamide]
0.0105	3.22	CC(C)Nc1c(C(=O)NCCCNS(C)(=O)=O)cnc2ccc(-c3cn[nH]c3)cc12 [Example 95, 4-(isopropylamino)-N-(3-(methylsulfonamido)propyl)-6-(1H-pyrazol-4-yl)quinoline-3-carboxamide]
0.0114	1.28	CC(C)Nc1c(C(=O)NCCC2CCCN2)cnc2ccc(-c3cn[nH]c3)cc12 (stereo not shown) [Example 96, 4-(isopropylamino)-6-(1H-pyrazol-4-yl)-N-(2-(pyrrolidin-2-yl)ethyl)quinoline-3-carboxamide]
0.0097	2.08	CC(C)Nc1c(C(=O)NCCC2CCNC2)cnc2ccc(-c3cn[nH]c3)cc12 (stereo not shown) [Example 97, 4-(isopropylamino)-6-(1H-pyrazol-4-yl)-N-(2-(pyrrolidin-3-yl)ethyl)quinoline-3-carboxamide]
0.0042	0.607	CC(C)Nc1c(C(=O)NCCc2cccnc2)cnc2ccc(-c3cn[nH]c3)cc12 [Example 98, 4-(isopropylamino)-6-(1H-pyrazol-4-yl)-N-(2-(pyridin-3-yl)ethyl)quinoline-3-carboxamide]
0.0041	0.447	CC(C)Nc1c(C(=O)N[C@H]2CC[C@H](n3ccnn3)CC2)cnc2ccc(-c3cn[nH]c3)cc12 [Example 101, N-((1r,4r)-4-(1H-1,2,3-triazol-1-yl)cyclohexyl)-4-(isopropylamino)-6-(1H-pyrazol-4-yl)quinoline-3-carboxamide]
0.011	2.72	CC(C)Nc1c(C(=O)NCCCn2ccnc2)cnc2ccc(-c3cn[nH]c3)cc12 [Example 103, N-(3-(1H-imidazol-1-yl)propyl)-4-(isopropylamino)-6-(1H-pyrazol-4-yl)quinoline-3-carboxamide]
0.021	3.77	CC(C)Nc1c(C(=O)NCC2CCS(=O)(=O)CC2)cnc2ccc(-c3cn[nH]c3)cc12 [Example 107, N-((1,1-dioxidotetrahydro-2H-thiopyran-4-yl)methyl)-4-(isopropylamino)-6-(1H-pyrazol-4-yl)quinoline-3-carboxamide]
0.0044	2.37	CC(C)Nc1c(C(=O)NCCc2ccncc2)cnc2ccc(-c3cn[nH]c3)cc12 [Example 109, 4-(isopropylamino)-6-(1H-pyrazol-4-yl)-N-(2-(pyridin-4-yl)ethyl)quinoline-3-carboxamide]
0.0043	2.73	CC(C)Nc1c(C(=O)NCCC2CCS(=O)(=O)CC2)cnc2ccc(-c3cn[nH]c3)cc12 [Example 112, N-(2-(1,1-dioxidotetrahydro-2H-thiopyran-4-yl)ethyl)-4-(isopropylamino)-6-(1H-pyrazol-4-yl) quinoline-3-carboxamide]
0.0058	1.63	CC(C)Nc1c(C(=O)NCCCc2csc(N)n2)cnc2ccc(-c3cn[nH]c3)cc12 [Example 113, N-(3-(2-aminothiazol-4-yl)propyl)-4-(isopropylamino)-6-(1H-pyrazol-4-yl)quinoline-3-carboxamide]
0.0091	1.74	CC(C)Nc1c(C(=O)NCCCc2ccncc2)cnc2ccc(-c3cn[nH]c3)cc12 [Example 114, 4-(isopropylamino)-6-(1H-pyrazol-4-yl)-N-(3-(pyridin-4-yl)propyl)quinoline-3-carboxamide]
0.0044	1.1	O=C(NCCc1cccnc1)c1cnc2ccc(-c3cn[nH]c3)cc2c1NC1CC1 [Example 115, 4-(cyclopropylamino)-6-(1H-pyrazol-4-yl)-N-(2-(pyridin-3-yl)ethyl)quinoline-3-carboxamide]
0.0049	5.19	O=C(NCCN1CCS(=O)(=O)CC1)c1cnc2ccc(-c3cn[nH]c3)cc2c1NC1CC1 [Example 117, 4-(cyclopropylamino)-N-(2-(1,1-dioxidothiomorpholino)ethyl)-6-(1H-pyrazol-4-yl)quinoline-3-carboxamide]
0.0108	3.15	O=C(NCCCc1ccncc1)c1cnc2ccc(-c3cn[nH]c3)cc2c1NC1CC1 [Example 118, 4-(cyclopropylamino)-6-(1H-pyrazol-4-yl)-N-(3-(pyridin-4-yl)propyl)quinoline-3-carboxamide]
0.0032	1.18	CC1(Nc2c(C(=O)NCCN3CCS(=O)(=O)CC3)cnc3ccc(-c4cn[nH]c4)cc23)CC1 [Example 119, N-(2-(1,1-dioxidothiomorpholino)ethyl)-4-((1-methylcyclopropyl)amino)-6-(1H-pyrazol-4-yl)quinoline-3-carboxamide]
